From patent US4362743A, “Antibacterial monic acid esters” (Beecham Group Limited, priority 1980, dated 1982)
Values after ≈ are worked out from the molar mass of the structure shown. Like-named read-outs stand apart in the source and are kept apart here.

Legend:
Format in all cases: cell-based
Bord. brochiasetpica B09 = assay: Veterinary bacteria MIC; conditions: Diagnostic Sensitivity Test Agar, 18 hours 37° C.
Description: (§1) The values were determined using a two fold serial dilutions in Diagnostic Sensitivity Test Agar with an inoculum of 10^4 organisms and incubation for 18 hours at 37° C.

[1] = tested on: Corynebacterium pyogenes CY1; assay: Veterinary bacteria MIC; conditions: Trueperella pyogenes
Description: as §1

Bord. bronchiseptica B08 = assay: Veterinary bacteria MIC; conditions: Bordetella bronchiseptica
Description: as §1

M. suipneumoniae Str. 11 = assay: Anti-mycoplasmal activity in vitro MIC; conditions: Mesomycoplasma hyopneumoniae
[2] = tested on: M. suipneumoniae NCTC 10110; assay: Anti-mycoplasmal activity in vitro MIC; conditions: Mesomycoplasma hyopneumoniae, NCTC10110, 144 h
M. suipneumoniae JF 435 = assay: Anti-mycoplasmal activity in vitro MIC; conditions: Mesomycoplasma hyopneumoniae, JF435, 144 h
Staph. aureus W2827 = assay: Human bacteria MIC; conditions: Staphylococcus aureus; Staph. aureus W2827; nutrient agar, 5% chocolated horse blood, 18 hours 37° C.; read-out: M.I.C.
Description: (§2) The values were determined by serial dilutions in nutrient agar with 5% chocolated horse blood after incubations for 18 hours at 37° C.

Staph. aureus Russell = assay: Human bacteria MIC; conditions: Staphylococcus aureus
Description: as §2

Ps. aeruginosa 10662 = assay: Human bacteria MIC
Description: as §2

E. Coli NCT 10418 = assay: Human bacteria MIC; conditions: Escherichia coli
Description: as §2

K. aerogenes A = assay: Human bacteria MIC; conditions: Klebsiella aerogenes
Description: as §2

Staph. aureus Oxford = assay: Human bacteria MIC; conditions: Staphylococcus aureus
Description: as §2

Strep. pneumoniae CN33 = assay: Human bacteria MIC; conditions: Streptococcus pneumoniae
Description: as §2

Strep. faecalis I = assay: Human bacteria MIC; conditions: Enterococcus faecalis, nutrient agar, 5% chocolated horse blood, 18 hours 37° C.
Description: as §2

P. mirabilis 889 = assay: Human bacteria MIC
Description: as §2

Bacillus subtilis 6633 = assay: Human bacteria MIC
Description: as §2

[3] = tested on: Haemophilus influenzae Q1; assay: Human bacteria MIC
Description: as §2

[4] = tested on: Corneybacterium xerosis 9755; assay: Human bacteria MIC
Description: as §2

[5] = tested on: Neisseria catarralis 1502; assay: Human bacteria MIC
Description: as §2

Strep Group B 2788 = assay: Human bacteria MIC
Description: as §2

Strep. Group C 64/848 = assay: Human bacteria MIC
Description: as §2

[6] = tested on: Pasteurella multocida 1633; assay: Human bacteria MIC
Description: as §2

E. coli ESS = assay: Human bacteria MIC; conditions: Escherichia coli
Description: as §2

Strep. pyogenes R80/421 = assay: Human bacteria MIC; conditions: Streptococcus pyogenes
Description: as §2

M. hyorhinis ATCC 23234 = assay: Anti-mycoplasmal activity in vitro MIC; conditions: Mesomycoplasma hyorhinis, ATCC23234, 144 h
M. suipneumoniae UCD 1 = assay: Anti-mycoplasmal activity in vitro MIC; conditions: Mesomycoplasma hyopneumoniae, UCD1, 144 h
M. bovis NCTC 10131 = assay: microbe, parasite or virus in culture; conditions: NCTC10131, 144 h
M. pneumoniae ATCC 15492 = assay: Anti-mycoplasmal activity in vitro MIC; conditions: Mycoplasmoides pneumoniae, ATCC15492, 144 h
[7] = 144 h, M. suipneumoniae Str. 11, Friis broth, 0.9% agarose, 6 days 37° C., read-out: M.I.C.
[8] = M. suipneumoniae JF 435, Friis broth, 0.9% agarose, 6 days 37° C., read-out: M.I.C.
[9] = Pasteurella multocida, 1633, 18 h
[10] = Corynebacterium pyogenes CY1, Diagnostic Sensitivity Test Agar, 18 hours 37° C., read-out: M.I.C.
[11] = Bord. bronchiseptica B08, Diagnostic Sensitivity Test Agar, 18 hours 37° C., read-out: M.I.C.
[12] = Staph. aureus Russell, nutrient agar, 5% chocolated horse blood, 18 hours 37° C., read-out: M.I.C.
[13] = Pseudomonas aeruginosa, Ps. aeruginosa 10662, nutrient agar, 5% chocolated horse blood, 18 hours 37° C., read-out: M.I.C.
[14] = E. Coli NCT 10418, nutrient agar, 5% chocolated horse blood, 18 hours 37° C., read-out: M.I.C.
[15] = K. aerogenes A, nutrient agar, 5% chocolated horse blood, 18 hours 37° C., read-out: M.I.C.
[16] = Staph. aureus Oxford, nutrient agar, 5% chocolated horse blood, 18 hours 37° C., read-out: M.I.C.
[17] = Strep. pneumoniae CN33, nutrient agar, 5% chocolated horse blood, 18 hours 37° C., read-out: M.I.C.
[18] = Proteus mirabilis, P. mirabilis 889, nutrient agar, 5% chocolated horse blood, 18 hours 37° C., read-out: M.I.C.
[19] = Bacillus subtilis 6633, nutrient agar, 5% chocolated horse blood, 18 hours 37° C., read-out: M.I.C.
[20] = Haemophilus influenzae Q1, nutrient agar, 5% chocolated horse blood, 18 hours 37° C., read-out: M.I.C.
[21] = Corneybacterium xerosis 9755, nutrient agar, 5% chocolated horse blood, 18 hours 37° C., read-out: M.I.C.
[22] = Neisseria catarralis 1502, nutrient agar, 5% chocolated horse blood, 18 hours 37° C., read-out: M.I.C.
[23] = Strep Group B 2788, nutrient agar, 5% chocolated horse blood, 18 hours 37° C., read-out: M.I.C.
[24] = Strep. Group C 64/848, nutrient agar, 5% chocolated horse blood, 18 hours 37° C., read-out: M.I.C.
[25] = Strep. pyogenes R80/421, nutrient agar, 5% chocolated horse blood, 18 hours 37° C., read-out: M.I.C.

Structure (SMILES)	MIC (Bord. brochiasetpica B09) [µg/mL]	MIC (M. suipneumoniae Str. 11; [7]) [µg/mL]	MIC (M. suipneumoniae JF 435; [8]) [µg/mL]	MIC (Staph. aureus W2827) [µg/mL]	MIC (Strep. faecalis I) [µg/mL]	MIC [6, 9] [µg/mL]	MIC (E. coli ESS; 18 h) [µg/mL]	MIC (M. hyorhinis ATCC 23234) [µg/mL]	MIC (M. suipneumoniae UCD 1) [µg/mL]	MIC (M. bovis NCTC 10131) [µg/mL]	MIC (M. pneumoniae ATCC 15492) [µg/mL]	MIC [1, 10] [µg/mL]	MIC (Bord. bronchiseptica B08; [11]) [µg/mL]	MIC [2] [µg/mL]	MIC (Staph. aureus Russell; [12]) [µg/mL]	MIC (Ps. aeruginosa 10662; [13]) [µg/mL]	MIC (E. Coli NCT 10418; [14]) [µg/mL]	MIC (K. aerogenes A; [15]) [µg/mL]	MIC (Staph. aureus Oxford; [16]) [µg/mL]	MIC (Strep. pneumoniae CN33; [17]) [µg/mL]	other results
C/C(=C\C(=O)OCCCCCC=NN(C)C)C[C@@H]1OC[C@H](C[C@@H]2O[C@H]2[C@@H](C)[C@H](C)O)[C@@H](O)[C@H]1O [Example 6, 6-Dimethylhydrazonohexyl monate A]	2.5 (≈ 5.16 µM)	0.5 (≈ 1.03 µM)	0.5 (≈ 1.03 µM)	0.25 (≈ 0.516 µM)	> 100	1 (≈ 2.06 µM)	5 (≈ 10.3 µM)	0.25 (≈ 0.516 µM)	1 (≈ 2.06 µM)	≤ 0.01	2.5 (≈ 5.16 µM)	–	–	–	–	–	–	–	–	–	MIC ([1]; CY1, 18 h): > 80 µg/mL; MIC (Bord. bronchiseptica B08; B08, 18 h): 5 µg/mL (≈ 10.3 µM); MIC ([2]; M. suipneumoniae NCTC 10110, Friis broth, 0.9% agarose, 6 days 37° C., read-out: M.I.C.): 0.5 µg/mL (≈ 1.03 µM); MIC (Staph. aureus Russell; 18 h): 0.25 µg/mL (≈ 0.516 µM); MIC (Ps. aeruginosa 10662; Pseudomonas aeruginosa, 10662, 18 h): > 100 µg/mL; MIC (E. Coli NCT 10418; 18 h): > 100 µg/mL; MIC (K. aerogenes A; 18 h): > 100 µg/mL; MIC (Staph. aureus Oxford; 18 h): 0.1 µg/mL (≈ 0.206 µM); MIC (Strep. pneumoniae CN33; CN33, 18 h): 1 µg/mL (≈ 2.06 µM); MIC (P. mirabilis 889; Proteus mirabilis, 889, 18 h): > 100 µg/mL; MIC (Bacillus subtilis 6633; Bacillus subtilis, 6633, 18 h): 5 µg/mL (≈ 10.3 µM); MIC ([3]; Haemophilus influenzae, Q1, 18 h): 0.5 µg/mL (≈ 1.03 µM); MIC ([4]; 18 h): > 100 µg/mL; MIC ([5]; Neisseria, 1502, 18 h): 0.05 µg/mL (≈ 0.103 µM); MIC (Strep Group B 2788; 18 h): 1 µg/mL (≈ 2.06 µM); MIC (Strep. Group C 64/848; 18 h): 1 µg/mL (≈ 2.06 µM); MIC (Strep. pyogenes R80/421; R80/421, 18 h): 1 µg/mL (≈ 2.06 µM)
CON=C(CCCOC(=O)/C=C(\C)C[C@@H]1OC[C@H](C[C@@H]2O[C@H]2[C@@H](C)[C@H](C)O)[C@@H](O)[C@H]1O)c1ccccc1 [Example 5, 4-Methoxyimino-4-phenylbutyl monate A]	40 (≈ 77 µM)	–	0.5 (≈ 0.962 µM)	2.5 (≈ 4.81 µM)	> 100	50 (≈ 96.2 µM)	5 (≈ 9.62 µM)	0.25 (≈ 0.481 µM)	0.25 (≈ 0.481 µM)	0.025 (≈ 0.0481 µM)	2.5 (≈ 4.81 µM)	> 80	> 80	0.25 (≈ 0.481 µM)	2.5 (≈ 4.81 µM)	> 100	> 100	> 100	1 (≈ 1.92 µM)	2.5 (≈ 4.81 µM)	MIC (M. suipneumoniae Str. 11; STR.11, 144 h): 0.25 µg/mL (≈ 0.481 µM); MIC (P. mirabilis 889; [18]): > 100 µg/mL; MIC (Bacillus subtilis 6633; [19]): 1 µg/mL (≈ 1.92 µM); MIC [3, 20]: 2.5 µg/mL (≈ 4.81 µM); MIC [4, 21]: > 100 µg/mL; MIC [5, 22]: 1 µg/mL (≈ 1.92 µM); MIC (Strep Group B 2788; [23]): 5 µg/mL (≈ 9.62 µM); MIC (Strep. Group C 64/848; [24]): 2.5 µg/mL (≈ 4.81 µM); MIC (Strep. pyogenes R80/421; [25]): 2.5 µg/mL (≈ 4.81 µM)
C/C(=C\C(=O)OCCCC(=NO)c1cccs1)C[C@@H]1OC[C@H](C[C@@H]2O[C@H]2[C@@H](C)[C@H](C)O)[C@@H](O)[C@H]1O [Example 4, 4-Hydroxyimino-4-(2-thienyl)butyl monate A]	5 (≈ 9.77 µM)	0.25 (≈ 0.489 µM)	–	2.5 (≈ 4.89 µM)	100 (≈ 195 µM)	–	–	–	0.5 (≈ 0.977 µM)	0.025 (≈ 0.0489 µM)	–	> 80	> 80	0.5 (≈ 0.977 µM)	2.5 (≈ 4.89 µM)	> 100	> 100	> 100	1 (≈ 1.95 µM)	1 (≈ 1.95 µM)	MIC (M. suipneumoniae JF 435): 0.5 µg/mL (≈ 0.977 µM); MIC (P. mirabilis 889; [18]): > 100 µg/mL; MIC (Bacillus subtilis 6633; [19]): 1 µg/mL (≈ 1.95 µM); MIC [3, 20]: 0.5 µg/mL (≈ 0.977 µM); MIC [4, 21]: > 100 µg/mL; MIC [5, 22]: 0.5 µg/mL (≈ 0.977 µM); MIC (Strep Group B 2788; [23]): 2.5 µg/mL (≈ 4.89 µM); MIC (Strep. Group C 64/848; [24]): 1 µg/mL (≈ 1.95 µM); MIC ([6]; Pasteurella multocida 1633, nutrient agar, 5% chocolated horse blood, 18 hours 37° C., read-out: M.I.C.): 5 µg/mL (≈ 9.77 µM); MIC (E. coli ESS; E. coli ESS, nutrient agar, 5% chocolated horse blood, 18 hours 37° C., read-out: M.I.C.): 2.5 µg/mL (≈ 4.89 µM); MIC (Strep. pyogenes R80/421; [25]): 1 µg/mL (≈ 1.95 µM); MIC (M. hyorhinis ATCC 23234; M. hyorhinis ATCC 23234, Friis broth, 0.9% agarose, 6 days 37° C., read-out: M.I.C.): 0.25 µg/mL (≈ 0.489 µM); MIC (M. pneumoniae ATCC 15492; M. pneumoniae ATCC 15492, Friis broth, 0.9% agarose, 6 days 37° C., read-out: M.I.C.): 2.5 µg/mL (≈ 4.89 µM)
